The values that follow are results of earlier work, collected in PubChem BioAssay AID1259409 (Chemical Carcinogenesis Research Information System (CCRIS), 2018).

The test system of the series is rodent chemically induced tumor inhibition, incidence and multiplicity. As to the kind of experiment: CCRIS tumor inhibitor studies.

In the case of `CC(C)(O)/C=C/C(=O)[C@](C)(O)[C@H]1[C@H](O)C[C@@]2(C)[C@@H]3CC=C4[C@@H](C[C@H](O)[C@@H](O)C4(C)C)[C@]3(C)C(=O)C[C@]12C`, the “tumour outcome (control, treated, inhibition, significance)” value (Carcinogen: 7,12-DIMETHYLBENZ[A]ANTHRACENE, 57-97-6, Dose [Inhibitor]: 0, 85 NMOL IN 0.1 ML ACETONE APPLIED 1 HR PRIOR TO EACH PROMOTER DOSE 2/WK FOR 20 WK (STUDY DURATION: 21 WK), Route [Inhibitor]: DERMAL, Species: MOUSE, Strain/Sex: ICR/FEMALE, Target Tissue: Type of Lesion: SKIN: PAPILLOMA, Dose [Carcinogen]: 100 UG IN 0.1 ML ACETONE ONCE, Promoter: 12-O-TETRADECANOYLPHORBOL-13-ACETATE, 16561-29-8) was 100%, 100%, 0%, not significant.

With `CC1=C(/C=C/C(C)=C/C=C/C(C)=C\C(=O)NCCCCO)C(C)(C)CCC1`, the “tumour outcome (control, treated, inhibition, significance)” value (Carcinogen: N-BUTYL-N-(4-HYDROXYBUTYL)NITROSAMINE, 3817-11-6, Dose [Inhibitor]: 1.5 MMOL/KG DIET DAILY FOR 133 D STARTING ONE WK AFTER THE FINAL CARCINOGEN DOSE (STUDY DURATION: 190 D), Route [Inhibitor]: ORAL, Species: MOUSE, Strain/Sex: BDF/MALE, Target Tissue: Type of Lesion: URINARY BLADDER: TRANSITIONAL CELL CARCINOMA, Dose [Carcinogen]: 7.5 MG 1/WK FOR 8 WK, Promoter: NONE USED) was 21/100 (21%), 17/100 (17%), 20%, not significant and the “tumour outcome (control, treated, inhibition, significance)” value (Carcinogen: N-BUTYL-N-(4-HYDROXYBUTYL)NITROSAMINE, 3817-11-6, Dose [Inhibitor]: 1.5 MMOL/KG IN DIET FOR 133 D STARTING 1 WK AFTER LAST CARCINOGEN DOSE (STUDY DURATION: 190 D), Route [Inhibitor]: ORAL, Species: MOUSE, Strain/Sex: DBF1/MALE, Target Tissue: Type of Lesion: URINARY BLADDER: TRANSITIONAL CELL CARCINOMA, Dose [Carcinogen]: 7.5 MG 1/WK FOR 8 WK, Promoter: NONE USED) is recorded as 21/100 (21%), 17/100 (17%), 19%, not significant.

As to `CC1=C(/C=C/C(C)=C/C=C/C(C)=C/CO)C(C)(C)CCC1`, the “tumour outcome (control, treated, inhibition, significance)” value is reported as 44%, 36%, 18%, not significant (Carcinogen: BENZO[A]PYRENE, 50-32-8, Dose [Inhibitor]: 0, 4000 IU/KG DIET BEGINNING 170 D PRIOR TO CARCINOGEN AND CONTINUING FOR STUDY DURATION (STUDY DURATION: 512 D), Route [Inhibitor]: ORAL, Species: HAMSTER, Strain/Sex: SYRIAN/MALE, Target Tissue: Type of Lesion: RESPIRATORY TRACT: TUMOR, Dose [Carcinogen]: 10 MG IN SALINE PLUS 8 MG FERRIC OXIDE 1/2 WK FOR 10 WK, Promoter: NONE USED) and 44%, 35%, 20%, not significant (Carcinogen: BENZO[A]PYRENE, 50-32-8, Dose [Inhibitor]: 0, 100000 IU/KG DIET BEGINNING 170 D PRIOR TO CARCINOGEN AND CONTINUING FOR STUDY DURATION (STUDY DURATION: 512 D), Route [Inhibitor]: ORAL, Species: HAMSTER, Strain/Sex: SYRIAN/MALE, Target Tissue: Type of Lesion: RESPIRATORY TRACT: TUMOR, Dose [Carcinogen]: 10 MG IN SALINE PLUS 8 MG FERRIC OXIDE 1/2 WK FOR 10 WK, Promoter: NONE USED).

With `CCCCc1cccs1`, the “tumour outcome (control, treated, inhibition, significance)” value reads like this: (Carcinogen: BENZO[A]PYRENE, 50-32-8, Dose [Inhibitor]: 0, 45 UMOL IN 0.2 ML COTTONSEED OIL 3/WK FOR 4 WK BEGINNING 1 DAY PRIOR TO FIRST CARCINOGEN DOSE AND TERMINATING 1 DAY A, Route [Inhibitor]: GAVAGE, Species: MOUSE, Strain/Sex: STRAIN-A/FEMALE, Target Tissue: Type of Lesion: FORESTOMACH: TUMOR, Dose [Carcinogen]: 1 MG 2/WK FOR 4 WK, Promoter: NONE USED) 14/17 (82%), 9/18 (50%), 39%, p<0.05; (Carcinogen: BENZO[A]PYRENE, 50-32-8, Dose [Inhibitor]: 0, 45 UMOL IN 0.2 ML COTTONSEED OIL 3/WK FOR 4 WK BEGINNING 1 DAY PRIOR TO FIRST CARCINOGEN DOSE AND TERMINATING 1 DAY A, Route [Inhibitor]: GAVAGE, Species: MOUSE, Strain/Sex: STRAIN-A/FEMALE, Target Tissue: Type of Lesion: LUNG: TUMOR, Dose [Carcinogen]: 1 MG 2/WK FOR 4 WK, Promoter: NONE USED) 17/17 (100%), 18/18 (100%), 0%, not significant; (Carcinogen: BENZO[A]PYRENE, 50-32-8, Dose [Inhibitor]: 0, 90 UMOL IN 0.2 ML COTTONSEED OIL 3/WK FOR 4 WK BEGINNING 1 DAY PRIOR TO FIRST CARCINOGEN DOSE AND TERMINATING 1 DAY A, Route [Inhibitor]: GAVAGE, Species: MOUSE, Strain/Sex: STRAIN-A/FEMALE, Target Tissue: Type of Lesion: FORESTOMACH: TUMOR, Dose [Carcinogen]: 1 MG 2/WK FOR 4 WK, Promoter: NONE USED) 14/17 (82%), 9/13 (69%), 16%, not significant; (Carcinogen: BENZO[A]PYRENE, 50-32-8, Dose [Inhibitor]: 0, 90 UMOL IN 0.2 ML COTTONSEED OIL 3/WK FOR 4 WK BEGINNING 1 DAY PRIOR TO FIRST CARCINOGEN DOSE AND TERMINATING 1 DAY A, Route [Inhibitor]: GAVAGE, Species: MOUSE, Strain/Sex: STRAIN-A/FEMALE, Target Tissue: Type of Lesion: LUNG: TUMOR, Dose [Carcinogen]: 1 MG 2/WK FOR 4 WK, Promoter: NONE USED) 17/17 (100%), 13/13 (100%), 0%, not significant.

Consider `C=C(NC(=O)Cc1ccc(OS(=O)(=O)O)cc1)C(=O)O`, for which, for the setting “Carcinogen: 7,12-DIMETHYLBENZ[A]ANTHRACENE, 57-97-6, Dose [Inhibitor]: 0, 1 MMOL 15 MINUTES AFTER EACH PROMOTER TREATMENT BEGINNING 2 WK POST CARCINOGEN (STUDY DURATION: 42 WK), Route [Inhibitor]: DERMAL, Species: MOUSE, Strain/Sex: SENCAR/FEMALE, Target Tissue: Type of Lesion: SKIN: SQUAMOUS CELL CARCINOMA, Dose [Carcinogen]: 10 NMOL IN 0.2 ML ACETONE ONCE”, the “tumour outcome (control, treated, inhibition, significance)” value was 48%, 25%, 48%, not calculated.
